Source: US8329746B2, “Method for treating osteoarthritis” (CaloSyn Pharma, Inc., priority 2005, dated 2012)

Tested on: synovial lining cells
Details: human

Compound | concentration that must not be exceeded in compositions (harmful effects on synovial cells) [µg/mL]
CCN(CC)CCNC(=O)c1ccc(N)cc1 [procainamide] | ≤ 2000
COc1ccc(CCN(C)CCCC(C#N)(c2ccc(OC)c(OC)c2)C(C)C)cc1OC (centres unmarked) [verapamil] | ≤ 2000
